Measurements from patent US9115092B2, “Substituted quinazoline and pyrido-pyrimidine derivatives” (Asana Biosciences, LLC, priority 2010, dated 2015).
pIC50: −log10 of the molar value.

Legend:
[1] = system: pAkt(5473), T47D cells; experiment: In-cell Western assay, pAkt(5473) in T47D cells; assay type: cell-based; settings: Homo sapiens, T47D cell line, read-out: inhibition of pAkt(5473), IC50
[2] = system: BT474 cells; experiment: XTT assay for cell viability, BT474 cells; assay type: cell-based; settings: Homo sapiens, BT-474, read-out: inhibition of cell proliferation, IC50
Procedure: Using a commercial kit from Sigma Aldrich (Catalog #X34251) and following its protocol, PC3 cells in the log phase of growth were employed and seeded at an optimal density of 1000 cell/well on to 96 well plates and incubated for 24 h followed by the addition of compounds of formula (I) in serial dilutions. Compound dilutions were made in DMSO. The cells were incubated with the compounds of formula (I) for 96 h and XTT tetrazolium dye (Sigma, USA) was subsequently added and incubated at 37° C. After the color formation, absorbance was measured at 465 nm in a Spectramax® Gemini spectrophotometer. EC50 values were calculated using a sigmoidal dose response curve fit in GraphPad Prism® v5 software. The tested compounds of formula (I) which caused inhibition of PC3 cell proliferation as determined by this assay protocol are shown in Table 2.
XTT assays for cell viability are also determined in BT474 cells and T47D cells, in a similar manner to the protocol described above.

[3] = system: pS6RP, BT474 cells; experiment: In-cell Western assay, pS6RP in BT474 cells; assay type: cell-based; settings: Homo sapiens, BT-474, BT474 cell line, read-out: inhibition of pS6RP, IC50
[4] = system: pS6RP in BT474 tumor; experiment: In vivo PK/PD study, BT474 tumor-bearing xenograft mice, pS6RP; settings: for suppression of pS6RP in tumor tissue samples by Western blot: 2 weeks at 40 mg/kg bid po
Procedure: PC3 cells were cultured at 37° C. in a 5% CO2 incubator using Hams F12 K medium. Ten million (10^7) cells were injected subcutaneously to the right flank region of athymic male mice (Harlan, age: 6-7 weeks, weight: about 20 g). Tumor bearing mice were randomized when the tumor volume reached about 250 mm^3 and three mice were used per each time point. Test compounds of formula (I) were formulated in 40% HPCD in 1×PBS, pH 7.4 and dosed orally at 50 mg/kg single dose (dose volume−10 mL/kg). Plasma and tumor samples were collected at 0 (vehicle control animals), 1, 4 and 24 hours post dosing. Blood was drawn (retro orbital) to a tube containing 0.2% EDTA for plasma collection. The tumor was excised from the mouse and immediately frozen in liquid nitrogen for PD analysis. Tumor and plasma drug concentrations were measured for PK analysis using LC-MS.
Snap frozen tumor samples were pulverized in a mortar (Belart) containing liquid nitrogen and tumor powder was stored at −80° C. until analysis. Pre coated ELISA kits (Cell Signaling Technology; pAKT(T308), CST#7135; pAKT(5473), CST#7134 and pS6RP, CST#7205) were used for PD analysis. Tumor powder was transferred to Eppendorf® tubes and lysis buffer (1 mL) was added to the powder. Protease and phosphatase inhibitors (SIGMA) and phenylmethanesulfonylfluoride (PMSF) were added to tumor powder and mixed by vortexing followed by sonication (15 sec). Samples were kept on an ice bath for 30 min. Supernatant was separated after centrifugation at 10,000 rpm for 20 min at 4° C. Supernatant was re-centrifuged and fresh supernatant was aliquoted to different tubes. Total protein was estimated using a BCA kit (Thermo Scientific) and 50 μg total protein was loaded to each well. […] The detection for pAKT was based on chemiluminescence and pS6RP was based on absorbance. […]
In vivo pharmacokinetic/pharmacodynamic (PK/PD) studies were also carried out using BT474 tumor cells and the corresponding tumor-bearing xenograft mice, and compounds of the invention were determined to be active in this assay. […]

[5] = target: PI3 kinase isoform δ (Homo sapiens, UniProt O00329); experiment: PI3 Kinase TR-FRET assay, isoform δ; assay type: biochemical; settings: read-out: inhibition of PI3 kinase isoform δ, IC50
Procedure: The ability of compounds of the invention to inhibit PI3K activity was determined in a homogeneous TR-FRET assay using a PI3K assay kit (Millipore, USA; cat #33-016) according to manufacturer's instructions. PI3-Kinases (isoforms α, β, γ and δ) catalyze the phosphorylation of phosphatidylinositol, PIP2 to PIP3 in the presence of ATP and Mg^2+. The PIP3 product is detected by displacement of biotin-PIP3 from an energy transfer complex consisting of Europium labeled anti-GST monoclonal antibody, a GST-tagged PH domain, biotinylated PIP3 and Streptavidin-APC. Excitation of Europium in the complex results in an energy transfer to the APC and a fluorescence emission at 665 nm. The PIP3 product displaces biotin-PIP3 from the complex resulting in a loss of energy transfer and thus a decrease in signal.
To test for the ability of compounds to inhibit the activity of PI3Kα (wild-type), exemplary compounds of formula (I) were dissolved in DMSO and directly distributed into 384-well plates at a volume of 0.5 μL. 14.5 μL of P110/P85α/PIP2 mixture in buffer (obtained from the Millipore kit) containing MgCl2 (40 mM) and DTT (5 mM) was added to compound wells and incubated for 60 min at room temperature. P110/P85α was expressed in SF9 insect cells and purified nickel column extraction. Five ng of wild-type P110/P85α was used in the assay. The kinase reaction was started by the addition of ATP. The assay concentrations of both PIP2 and ATP were 10 μM. The reaction mixture was incubated for 30 min at room temperature and was terminated by the addition of stop mix and detection mix. Fluorescence was measured at 615 and 665 nm upon excitation at 340 nm in a Victor™ V5 fluorometer (Perkin Elmer, USA). The fluorescence emission ratio at 665 to 615 nm, proportional to the kinase activity, was plotted against the compound concentration to generate dose-response curves and IC50 values were determined using GraphPad Prism® 5 software.
The activity of PI3 kinase isoforms β, γ and δ were assayed in a similar manner to the assay protocol described above for PI3Kα, by substituting the appropriate p110/p85 isoform for the p110α/p85α. Compounds of formula (I) caused inhibition of PI3 kinase isoforms β, γ and δ as determined by these assays. For example, the compounds of examples 3, 51, 54, 111, 113, 115, and 253 each caused inhibition of PI3 kinase isoform β with IC50 values <50 nM. The compounds of examples 104, 133, 146 and 152 each caused inhibition of PI3 kinase isoform β with IC50 values <500 nM. The compounds of examples 3, 51, 54, 104, 111, 113, 115, 133, 253, and 152 each caused inhibition of PI3 kinase isoform γ with IC50 values <500 nM. […] The compounds of examples 2, 3, 51, 54, 111, 113, and 253 each caused inhibition of PI3 kinase isoform […] with IC50 values >1 μM.

[6] = system: BT474 tumor cells; experiment: In vivo efficacy study (tumor growth suppression), BT474 xenograft; settings: BT474 xenograft mice, after 14 days of dosing at 40 mg/kg bid po

Chain of PI3 kinase isoform δ (O00329 whole entry, the tested form may be a part, canonical isoform): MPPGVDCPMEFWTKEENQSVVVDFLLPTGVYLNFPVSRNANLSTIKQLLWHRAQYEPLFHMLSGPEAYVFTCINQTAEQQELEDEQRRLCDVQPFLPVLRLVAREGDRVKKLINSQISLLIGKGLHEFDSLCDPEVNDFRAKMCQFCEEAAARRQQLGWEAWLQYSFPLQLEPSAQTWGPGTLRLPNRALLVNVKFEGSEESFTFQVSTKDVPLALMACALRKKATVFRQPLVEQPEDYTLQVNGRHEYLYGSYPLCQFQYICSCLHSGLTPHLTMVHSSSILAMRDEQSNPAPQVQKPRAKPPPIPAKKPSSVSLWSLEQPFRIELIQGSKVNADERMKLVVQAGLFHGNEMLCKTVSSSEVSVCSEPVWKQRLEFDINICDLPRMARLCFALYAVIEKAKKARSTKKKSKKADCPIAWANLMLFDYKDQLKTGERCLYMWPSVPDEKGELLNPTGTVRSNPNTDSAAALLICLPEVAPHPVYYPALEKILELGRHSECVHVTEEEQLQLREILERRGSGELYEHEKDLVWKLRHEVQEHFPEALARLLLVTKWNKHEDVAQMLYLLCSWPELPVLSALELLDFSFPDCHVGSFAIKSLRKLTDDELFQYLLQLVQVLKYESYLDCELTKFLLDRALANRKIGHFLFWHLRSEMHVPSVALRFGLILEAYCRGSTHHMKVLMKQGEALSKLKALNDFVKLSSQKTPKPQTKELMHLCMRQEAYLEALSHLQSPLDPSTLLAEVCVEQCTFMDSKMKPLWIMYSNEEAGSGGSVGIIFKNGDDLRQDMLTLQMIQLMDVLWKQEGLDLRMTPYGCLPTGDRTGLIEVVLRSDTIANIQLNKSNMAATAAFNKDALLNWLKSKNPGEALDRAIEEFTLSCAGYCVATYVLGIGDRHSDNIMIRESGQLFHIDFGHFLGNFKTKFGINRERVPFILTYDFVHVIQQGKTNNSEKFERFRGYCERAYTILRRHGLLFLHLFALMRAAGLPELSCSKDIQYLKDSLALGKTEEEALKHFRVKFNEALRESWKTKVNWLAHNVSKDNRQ
Chain of PI3 kinase isoform δ (P27986 whole entry partner, the tested form may be a part, canonical isoform): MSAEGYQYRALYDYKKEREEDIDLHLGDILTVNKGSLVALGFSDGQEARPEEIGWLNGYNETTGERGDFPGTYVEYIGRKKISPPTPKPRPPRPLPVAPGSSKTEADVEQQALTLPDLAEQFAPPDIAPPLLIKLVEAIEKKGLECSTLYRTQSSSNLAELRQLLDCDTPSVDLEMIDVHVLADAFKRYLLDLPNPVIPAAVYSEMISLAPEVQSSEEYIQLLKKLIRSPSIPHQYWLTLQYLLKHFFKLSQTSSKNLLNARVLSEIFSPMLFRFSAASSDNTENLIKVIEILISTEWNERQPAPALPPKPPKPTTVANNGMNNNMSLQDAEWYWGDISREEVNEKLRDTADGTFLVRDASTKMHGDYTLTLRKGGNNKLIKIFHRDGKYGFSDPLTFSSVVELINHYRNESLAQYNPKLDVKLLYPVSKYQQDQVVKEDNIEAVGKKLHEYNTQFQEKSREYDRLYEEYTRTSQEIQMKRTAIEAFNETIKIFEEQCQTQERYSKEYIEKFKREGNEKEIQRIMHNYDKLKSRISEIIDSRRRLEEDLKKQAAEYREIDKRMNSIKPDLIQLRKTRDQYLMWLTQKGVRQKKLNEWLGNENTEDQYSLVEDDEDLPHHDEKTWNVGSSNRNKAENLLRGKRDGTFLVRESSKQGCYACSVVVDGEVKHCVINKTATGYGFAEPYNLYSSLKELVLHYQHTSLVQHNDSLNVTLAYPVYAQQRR

Structure (SMILES) | pIC50 [1] | pIC50 [2] | pIC50 [3] | suppression of pS6RP in tumor tissue samples by Western blot [4] | pIC50 [5] | tumor growth inhibition relative to vehicle control group [6] | inhibition at 30 mg/kg ([4]; Mus musculus, BT-474, 30 mg/kg po, at 4 and 24 hours) [%]
CN(C)C(=O)c1ccc(NC(=O)Nc2ccc(-c3nc(N4CCOCC4)c4ccc(-c5cncnc5)cc4n3)cc2)cc1 [Example 1, N,N-Dimethyl-4-(3-{4-[4-morpholin-4-yl-7-pyrimidin-5-yl-quinazolin-2-yl)-phenyl]-ureido}-benzamide] | > 6.52 | > 7.00 | > 7.30 | – | – | – | –
Cc1ccc(-c2ccc3c(N4CCOCC4)nc(-c4ccc(NC(=O)Nc5ccc(C(=O)N(C)C)cc5)cc4)nc3c2)o1 [Example 2, N,N-Dimethyl-4-(3-{4-[7-(5-methyl-furan-2-yl)-4-morpholin-4-yl-quinazolin-2-yl]-phenyl}-ureido)-benzamide] | – | – | – | significant suppression | < 6.00 | about 65% | –
CN(C)C(=O)c1ccc(NC(=O)Nc2ccc(-c3nc(N4CCOCC4)c4ccc(-c5ccco5)cc4n3)cc2)cc1 [Example 51, 4-{3-[4-(7-furan-2-yl-4-morpholin-4-yl-quinazolin-2-yl)-phenyl]-ureido}-N,N-dimethyl-benzamide] | – | – | – | significant suppression | < 6.00 | about 70% | 30 to 40
